Experimental data as given in US8481732B2 (Incyte Corporation, priority 2009, dated 2013).

Molecular target: T1, histamine H4 receptor (Homo sapiens, UniProt Q9H3N8)
T1 construct: expressed in transfected cells; host or cells: HEK293SFM cells (membrane preparation)
Experiment: H4 Membrane Binding Assay (3H-Histamine displacement)
Conditions: membranes of recombinant HEK293SFM cells, 10 nM 3H-Histamine, 1.5 hr at room temperature
Protocol: Recombinant HEK293SFM cells expressing human H1, H2, H3, H4 or mouse H4 were harvested (Packard Filtermate Harvester) in ice-cold Tris-HCl, (50 mM, pH 7.5, Sigma) with protease inhibitors (Roche) and homogenized with a Polytron homogenizer. The homogenate was centrifuged for 5 minutes at 1000 g to remove nuclei and unbroken cells. The supernatant was centrifuged at 50000 g for 30 minutes, and the resulting pellet was re-suspended in ice-cold Tris-HCl (50 mM, pH 7.5). […] Nonspecific binding was determined by inclusion of 1000× unlabeled ligands. The bound radioactivity was separated by filtration through polyethyleneimine-treated GF/B filters (Perkin Elmer). The filters were washed eight times with ice-cold Tris-HCl (50 mM, pH 7.5), and radioactivity retained on the filters was measured by liquid scintillation counting. The binding data were evaluated with Prism.

T1 sequence (Q9H3N8 whole entry): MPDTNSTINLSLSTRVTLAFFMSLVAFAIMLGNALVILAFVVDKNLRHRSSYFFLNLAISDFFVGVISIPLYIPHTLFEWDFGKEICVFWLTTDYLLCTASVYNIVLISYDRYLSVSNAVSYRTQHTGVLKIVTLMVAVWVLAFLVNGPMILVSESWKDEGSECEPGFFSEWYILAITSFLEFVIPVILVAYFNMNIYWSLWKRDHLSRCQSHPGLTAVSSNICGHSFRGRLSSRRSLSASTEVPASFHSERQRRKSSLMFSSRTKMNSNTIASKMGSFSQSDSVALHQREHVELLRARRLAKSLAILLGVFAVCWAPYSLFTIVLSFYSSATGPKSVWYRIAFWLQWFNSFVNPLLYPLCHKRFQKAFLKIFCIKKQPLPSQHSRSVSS

| Structure (SMILES) | IC50 |
| --- | --- |
| CO[C@H]1CCCC[C@H]1NC(=O)N1CCc2ccc(-c3cc(N4CCN(C)CC4)nc(N)n3)cc2C1 (relative stereo) [Example 55, 7-[2-Amino-6-(4-methylpiperazin-1-yl)pyrimidin-4-yl]-N-(cis-2-methoxycyclohexyl)-3,4-dihydroisoquinoline-2(1H)-carboxamide] | 120 nM |
| CN1CCN(c2nc(N)nc3cc(C(=O)NC(C)(C)c4ccccc4)ccc23)CC1 [Example 23, 2-Amino-N-(1-methyl-1-phenylethyl)-4-(4-methylpiperazin-1-yl)quinazoline-7-carboxamide] | 384 nM |
| CC(C)Oc1ccc(C[C@@H](C#N)NC(=O)c2ccc3c(N4CCN(C)CC4)nc(N)nc3c2)cc1 [Example 137] | 42 nM |
| CC(C)c1ccc(CC(NC(=O)c2ccc3c(N4CCN(C)CC4)nc(N)nc3c2)C(=O)N(C)C)cc1 (stereo not shown) [Example 149, 2-Amino-N-[2-(dimethylamino)-1-(4-isopropylbenzyl)-2-oxoethyl]-4-(4-methylpiperazin-1-yl)quinazoline-7-carboxamide] | 40 nM |
| CN1CCN(c2cc(-c3ccc4c(c3)CN(C(=O)Cc3ccccc3)CC4)nc(N)n2)CC1 [Example 6, 4-(4-Methylpiperazin-1-yl)-6-[2-(phenylacetyl)-1,2,3,4-tetrahydroisoquinolin-7-yl]pyrimidin-2-amine] | 37.8 nM |
| CN1CCN(c2nc(N)nc3cc(C(=O)NCc4ccc(Oc5ccccc5)cc4)ccc23)CC1 [Example 34, 2-Amino-4-(4-methylpiperazin-1-yl)-N-(4-phenoxybenzyl)quinazoline-7-carboxamide] | 106 nM |
| CN1CCN(c2cc(-c3ccc4c(c3)CN(C(=O)N(C)C3CCCCC3)CC4)nc(N)n2)CC1 [Example 81, 7-[2-Amino-6-(4-methylpiperazin-1-yl)pyrimidin-4-yl]-N-cyclohexyl-N-methyl-3,4-dihydroisoquinoline-2(1H)-carboxamide] | 163 nM |
| CN1CCN(c2cc(-c3ccc4c(c3)CN(C(=O)Cc3ccc(F)cc3)CC4)nc(N)n2)CC1 [Example 65, 4-{2-[(4-Fluorophenyl)acetyl]-1,2,3,4-tetrahydroisoquinolin-7-yl}-6-(4-methylpiperazin-1-yl)pyrimidin-2-amine] | 25 nM |
| CN1CCN(c2cc(-c3ccc4c(c3)CN(C(=O)Nc3ccc(-n5cccn5)cc3)CC4)nc(N)n2)CC1 [Example 93, 7-[2-Amino-6-(4-methylpiperazin-1-yl)pyrimidin-4-yl]-N-[4-(1H-pyrazol-1-yl)phenyl]-3,4-dihydroisoquinoline-2(1H)-carboxamide] | 43 nM |
| CN1CCN(c2cc(-c3ccc4c(c3)CNCC4)nc(N)n2)CC1 [Example 1, 4-(4-Methylpiperazin-1-yl)-6-(1,2,3,4-tetrahydroisoquinolin-7-yl)pyrimidin-2-amine] | 198 nM |
| CN1CCN(c2cc(-c3ccc4c(c3)CN(C(=O)NC3(C)CCCCC3)CC4)nc(N)n2)CC1 [Example 47, 7-[2-Amino-6-(4-methylpiperazin-1-yl)pyrimidin-4-yl]-N-(1-methylcyclohexyl)-3,4-dihydroisoquinoline-2(1H)-carboxamide] | 27 nM |
| CN1CCN(c2nc(N)nc3cc(C(=O)NCc4ccc(-c5ccccc5)cc4)ccc23)CC1 [Example 33] | 190 nM |
| CN1CCN(c2nc(N)nc3cc(C(=O)NC(Cc4cccc(Oc5cc(C#N)ccc5C(F)(F)F)c4)C(=O)N(C)C)ccc23)CC1 (stereo not shown) [Example 171, 2-Amino-N-[1-{3-[5-cyano-2-(trifluoromethyl)phenoxy]benzyl}-2-(dimethylamino)-2-oxoethyl]-4-(4-methylpiperazin-1-yl)quinazoline-7-carboxamide] | 13 nM |
| CN1CCN(c2cc(-c3ccc4c(c3)CN(C(=O)CCc3ccccc3)CC4)nc(N)n2)CC1 [Example 101, 4-(4-Methylpiperazin-1-yl)-6-[2-(3-phenylpropanoyl)-1,2,3,4-tetrahydroisoquinolin-7-yl]pyrimidin-2-amine] | 99 nM |
| CC(NC(=O)c1ccc2c(N3CCN(C)CC3)nc(N)nc2c1)c1ccc(Oc2ccccc2)cc1 (stereo not shown) [Example 29, 2-Amino-4-(4-methylpiperazin-1-yl)-N-[1-(4-henoxyphenyl)ethyl]quinazoline-7-carboxamide] | 157 nM |
| CN1CCN(c2cc(-c3ccc4c(c3)CN(C(=O)N[C@@H]3c5ccccc5C[C@@H]3O)CC4)nc(N)n2)CC1 [Example 87, 7-[2-Amino-6-(4-methylpiperazin-1-yl)pyrimidin-4-yl]-N-[(1R,2S)-2-hydroxy-2,3-dihydro-1H-inden-1-yl]-3,4-dihydroisoquinoline-2(1H)-carboxamide] | 218 nM |

| Structure (SMILES) | IC50 |
| --- | --- |
| COc1ccc([C@@H](C)NC(=O)c2ccc3c(N4CCN(C)CC4)nc(N)nc3c2)cc1 [Example 30, 2-Amino-N-[(1R)-1-(4-methoxyphenyl)ethyl]-4-(4-methylpiperazin-1-yl)quinazoline-7-carboxamide] | 492 nM |
| CN1CCN(c2cc(-c3ccc4c(c3)CN(C(=O)Nc3cccc(Cl)c3)CC4)nc(N)n2)CC1 [Example 20, 7-[2-Amino-6-(4-methylpiperazin-1-yl)pyrimidin-4-yl]-N-(3-chlorophenyl)-3,4-dihydroisoquinoline-2(1H)-carboxamide] | 19.6 nM |
| CN1CCN(c2nc(N)nc3cc(C(=O)Nc4ccc(Oc5ccccc5)cc4)ccc23)CC1 [Example 35, 2-Amino-4-(4-methylpiperazin-1-yl)-N-(4-phenoxyphenyl)quinazoline-7-carboxamide] | 287 nM |
| CN1CCN(c2cc(-c3ccc4c(c3)CN(C(=O)N[C@H]3C[C@@H]3c3ccccc3)CC4)nc(N)n2)CC1 (relative stereo) [Example 49, 7-[2-Amino-6-(4-methylpiperazin-1-yl)pyrimidin-4-yl]-N-(trans-2-phenylcyclopropyl)-3,4-dihydroisoquinoline-2(1H)-carboxamide] | 47 nM |
| COc1cccc(-c2ccc(C[C@H](NC(=O)c3ccc4c(N5CCN(C)CC5)nc(N)nc4c3)C(=O)N(C)C)cc2)n1 [Example 153, 2-Amino-N-{(1S)-2-(dimethylamino)-1-[4-(6-methoxypyridin-2-yl)benzyl]-2-oxoethyl}-4-(4-methylpiperazin-1-yl)quinazoline-7-carboxamide] | 19 nM |
| CN1CCN(c2nc(N)nc3cc(C(=O)NC(Cc4nc5ccccc5s4)C(=O)N(C)C)ccc23)CC1 (stereo not shown) [Example 144, 2-Amino-N-[1-(1,3-benzothiazol-2-ylmethyl)-2-(dimethylamino)-2-oxoethyl]-4-(4-methylpiperazin-1-yl)quinazoline-7-carboxamide] | 190 nM |
| CC(Oc1cccc(CC(NC(=O)c2ccc3c(N4CCN(C)CC4)nc(N)nc3c2)C(=O)N(C)C)c1)c1cccc(C(F)(F)F)c1 (stereo not shown) [Example 176, 2-Amino-N-[2-(dimethylamino)-2-oxo-1-(3-{1-[3-(trifluoromethyl)phenyl]ethoxy}benzyl)ethyl]-4-(4-methylpiperazin-1-yl)quinazoline-7-carboxamide] | 51 nM |
| CCC(C)CC(=O)N1CCc2ccc(-c3cc(N4CCN(C)CC4)nc(N)n3)cc2C1 (stereo not shown) [Example 111, 4-[2-(3-Methylpentanoyl)-1,2,3,4-tetrahydroisoquinolin-7-yl]-6-(4-methylpiperazin-1-yl)pyrimidin-2-amine] | 9.5 nM |
| CC(C)Cc1ccc(C(C)NC(=O)c2ccc3c(N4CCN(C)CC4)nc(N)nc3c2)cc1 (stereo not shown) [Example 28, 2-Amino-N-[1-(4-isobutylphenyl)ethyl]-4-(4-methylpiperazin-1-yl)quinazoline-7-carboxamide] | 171 nM |
| CN1CCN(c2nc(N)nc3cc(C(=O)NC(Cc4ccc(-c5ccccc5)s4)C(=O)N(C)C)ccc23)CC1 (stereo not shown) [Example 147, 2-Amino-N-{2-(dimethylamino)-2-oxo-1-[(5-phenyl-2-thienyl)methyl]ethyl}-4-(4-methylpiperazin-1-yl)quinazoline-7-carboxamide] | 71 nM |
| Cc1ccc(C#N)c(Oc2cccc(CC(NC(=O)c3ccc4c(N5CCN(C)CC5)nc(N)nc4c3)C(=O)N(C)C)c2)n1 (stereo not shown) [Example 173, 2-Amino-N-[1-{3-[(3-cyano-6-methylpyridin-2-yl)oxy]benzyl}-2-(dimethylamino)-2-oxoethyl]-4-(4-methylpiperazin-1-yl)quinazoline-7-carboxamide] | 67 nM |
| CN1CCN(c2cc(-c3ccc4c(c3)CN(C(=O)CC3CCN(C(=O)C5CC5)CC3)CC4)nc(N)n2)CC1 [Example 72, 4-(2-{[1-(Cyclopropylcarbonyl)piperidin-4-yl]acetyl}-1,2,3,4-tetrahydroisoquinolin-7-yl)-6-(4-methylpiperazin-1-yl)pyrimidin-2-amine] | 419 nM |
| COC(=O)c1ccc(COc2cccc3c2CCN(C(=O)c2ccc4c(N5CCN(C)CC5)nc(N)nc4c2)C3)cc1 [Example 211, Methyl 4-((2-(2-amino-4-(4-methylpiperazin-1-yl)quinazoline-7-carbonyl)-1,2,3,4-tetrahydroisoquinolin-5-yloxy)methyl)benzoate] | 63 nM |
| CN1CCN(c2cc(-c3ccc4c(c3)CN(c3ccc(C#N)cc3)CC4)nc(N)n2)CC1 [Example 14, 4-{7-[2-Amino-6-(4-methylpiperazin-1-yl)pyrimidin-4-yl]-3,4-dihydroisoquinolin-2(1H)-yl}benzonitrile] | 23.1 nM |
| Cc1cnc(C)c(Oc2cccc(CNC(=O)c3ccc4c(N5CCN(C)CC5)nc(N)nc4c3)c2)n1 [Example 187, 2-Amino-N-{3-[(3,6-dimethylpyrazin-2-yl)oxy]benzyl}-4-(4-methylpiperazin-1-yl)quinazoline-7-carboxamide] | 41 nM |
